Assay [1] has as its system primary leukemia/lymphoma cells. Briefly: Annexin V flow cytometric apoptosis assay in primary cells from patients. It is filed as cell-based, human. As for the experimental part:
Apoptotic death was monitored using multiparameter flow cytometry, as previously reported (F. M. Uckun, et al., 2011, British Journal of Haematology, 153:741-752; F. M. Uckun et al., 2015, J Clin Invest., 125:1006-18). Controls included vehicle (PBS) treated cells (CON). Cells were analyzed for apoptosis using the standard quantitative flow cytometric apoptosis assay using the Annexin V-FITC Apoptosis Detection Kit from Sigma. The labeled cells were analyzed on a flow cytometer. The percent apoptosis was calculated using the formula: 100-100×(Percentage of non-apoptotic cells in test sample/Percentage of non-apoptotic cells in untreated control sample). The percentages for Annexin V FITC^−PI^− viable cells and Annexin V-FITC^+PI^+ advanced apoptotic cells for each sample are indicated in the respective quadrants of the depicted two-color fluorescence dot plots.
We examined the ability AP-5 to cause apoptotic death in freshly obtained primary cancer cells from Ficoll-Hypaque separated, highly enriched populations of primary leukemia/lymphoma cells isolated from bone marrow (BM, N=13) or peripheral blood (PB, N=13) specimens of 26 patients with hematological malignancies, 3 patients with rare forms of leukemia (one each with prolymphocytic leukemia [PLL], plasma cell leukemia [PCL], large granular cell leukemia [LGL]), one patient with chronic myeloid leukemia in blast crisis (CML-BC), including 8 patients with chronic lymphocytic leukemia (CLL)/well differentiated lymphocytic lymphoma (WDLL), one patient with acute myeloid leukemia (AML), 11 patients with B-lineage acute lymphoblastic leukemia (ALL) and 2 patients with T-lineage ALL (FIG. 1). Cells were treated with standard chemotherapeutic agents at various concentrations provided in RPMI-1640 medium supplemented with 10% fetal bovine serum (FBS) and incubated at 37° C. for 24 hr. Dexamethasone (DEQ.) was used. at 50 μg/ml, Adriamycin (ADR) at 10 μg/ml, vincristine (VCR), gemcitabine (GEM), fludarabine (FLU), methotrexate (MTX), etoposide (ETO), cytarabine (ARA-C) and cladribine (2-CDA) at 25 μg/ml. The cells were washed with serum-free RPMI-1640 medium and then processed for apoptosis assays. […]
Apoptotic death was monitored using multiparameter flow cytometry, as previously reported (F. M. Uckun et at, 2006, Brit Journal of Hematol. 135:500-8; F. M. Uckun et al., 2011, Brit Journal of hematol. 153:741-52; F. M. Uckun et al., 2015, J. Clin. Invest. 125:1006-18). Exposure of phosphatidylserine to the outer leaflet of the leukemic cell membrane was measured using fluorescein isothiocyanate (FITC)-conjugated annexin V, the natural ligand of phosphatidylserine (R&D Systems, Minneapolis, Minn., USA). […] The labelled cells were analyzed using a FACS Vantage flow cytometer (Becton Dickinson, Mountain view, CA, USA). […]
A general note: In flow cytometry, cells or beads pass a laser one at a time.

Assay [2] has as its system leukemia-initiating ALL xenograft cells. Briefly: Leukemia-initiating ALL xenograft cells treated in vitro and reinjected into NOD/SCID mice. Particulars: for spleen leukemia burden (nucleated spleen cell count) / spleen size (mean±SE): NOD/SCID mice sacrificed at 85 days. It is filed as in vivo, human. Here is the method:
Patient derived xenograft mouse models have predictive value for clinical responses (Xu C, Li X, Liu P, Li M and Luo F: Patient-derived xenograft mouse models: A high fidelity tool for individualized medicine (Review). Oncol Lett 17: 3-10, 2019). Xenograft clones isolated from spleens of NOD/SCID mice that developed overt leukemia after inoculation with primary leukemia cells from a B-lineage ALL patient were treated for 24 hours at 37° C. with one of two concentrations of AP-5 (1 μM or 3 μM in phosphate buffered saline [PBS] with 2% DMSO) or vehicle (PBS with 2% DMSO) and then reinjected into NOD/SCID mice (Control group: 9 mice; AP-5 groups: 8 mice per concentration level). Mice were monitored for signs of leukemia, and all mice in a given experiment were sacrificed when any mouse developed morbidity. The animal research in mice was conducted according to approved local IACUC protocols. All animal care procedures conformed to the Guide for the Care and Use of Laboratory Animals (National Research Council, National Academy Press, Washington D.C., USA. Revised 1996). Leukemia cells isolated from deidentified patient specimens were used in the described experiments.
Eight of the 9 control mice challenged with vehicle-treated xenograft cells developed leukemia between 81 and 85 days. All remaining mice were also sacrificed at 85 days. The spleen size and spleen leukemia burden were compared using previously published procedures (F. M. Uckun et al., 2015, J Clin Invest. 125:1006-18). […] The nucleated spleen cell count in these leukemic mice ranged from 192×10^6 to 940×10^6 (median: 576×10^6). The mean±SE values for all 9 control mice was 3.2±0.2 cm for the spleen size and 536.39±94.45×10^6 cells for the spleen leukemia burden (FIG. 4). By comparison, the spleens of mice inoculated with xenograft cells treated with AP-5 at a concentration of 1 μM (mean±SE=1.5±0.1 cm) (P=0.0011) or 3 μM (mean±SE=1.5±0.0 cm) (P=0.0018) were much smaller and contained substantially fewer cells (1 μM group: 7.95±1.11×10^6 cells/P=0.0104; 3 μM group: 5.84±1.07×10^6 cells/P=0.00002). […] FIG. 4 illustrates that AP-5 abrogates the ability of leukemia-initiating ALL xenograft cells to cause leukemia in NOD/SCID mice. The depicted Whisker plots in FIG. 4 represent the median and values (Min to Max. all data points are shown) for spleen size (A), and spleen leukemia burden (B). Kruskall Wallis and Dunn's multiple comparisons test were used for comparing the results among different groups (p<0.05). Statistical significance between groups is shown by the depicted p-values.

Where [3] appears, read: 24 hr in vitro exposure, primary cells from 26 patients.
Setting [4] is: xenograft cells treated 24 h with 1 μM.
The mark [5] stands for this setting: xenograft cells treated 24 h with 3 μM.

For the substance “2,4,6-Tri (9-O-dihydrocinchoninyl)pyrimidine [AP-5]”, in assay [1] (setting [3]), the “% apoptosis (Mean±SE)” value is on record as 93.5±1.1% and the “median percentage of apoptosis” value is listed as 96.1%. Besides, the “% apoptosis (range)” value in assay [1] (24 hr in vitro exposure, primary cells from 26 patients, range) is 79.9-99.6%. The “potency versus standard chemotherapy drugs tested side by side” value in assay [1] (24 hr, % apoptosis compared) is “substantially more potent than any of the 9 standard chemotherapy drugs tested side by side”. Further, the “ability of xenograft cells to initiate leukemia in NOD/SCID mice” value in assay [2] (low micromolar concentration (1 or 3 μM)) is given as “capable of abrogating the ability of the putative leukemic stem cell subpopulation of BPL xenograft cells to initiate leukemia”. For the same substance, in assay [2] (setting [4]), the “spleen leukemia burden (nucleated spleen cell count)” value is recorded as 7.95±1.11 ×10^6 cells and the “spleen size (mean±SE)” value was determined as 1.5±0.1 cm. In assay [2] (setting [5]), the “spleen leukemia burden (nucleated spleen cell count)” value is recorded as 5.84±1.07 ×10^6 cells and the “spleen size (mean±SE)” value came out at 1.5±0.0 cm.

The values above are taken from patent publication US11066421B1, “Synthetic cinchona alkaloids against cancer” (Ares Pharmaceuticals, LLC, priority 2021, dated 2021).
